Values quoted from earlier work as cited in patent US20260272607A1, “METHOD OF MARKING LESIONS” (Cook Medical Technologies LLC, priority 2023, published 2026).

Test system: lung nodules
Conditions: ICG dye marking without use of a coil; prior experience

CC1(C)C(/C=C/C=C/C=C/C=C2\N(CCCCS(=O)(=O)O)c3ccc4ccccc4c3C2(C)C)=[N+](CCCCS(=O)(=O)[O-])c2ccc3ccccc3c21 [ICG dye, indocyanine green]
persistence of dye effect after ICG dye marking without a coil: fade away over several hours
